Values joined by “and” are separate entries in the source; they are usually repeats but may differ in a detail not shown here. Equal values may be shown once.

The data set has as its system human subjects. Kind of data set: Phase I single-blind study: single increasing oral doses of pyridostigmine bromide with or without ondansetron, gastro-intestinal tolerability. The class given is in vivo. The conditions noted are these: healthy volunteers, one value per subject; for FID-1 Dose Limiting Adverse Event: pyridostigmine alone, oral. On the procedure: A Phase I study was conducted in human subjects receiving a single oral dose of pyridostigmine bromide with or without a single oral dose of ondansetron hydrochloride dihydrate (“ondansetron”), as a representative 5HT3-antagonist. The study was a single center, single-blind study.
Following enrollment in the study, participants received single increasing oral doses of pyridostigmine, given once daily in the morning. The starting dose of pyridostigmine was 30 mg and the dose was increased daily by 30 mg increments. Once a subject had reached his/her first intolerable dose (“FID-1”), upward dose escalation was discontinued. FID was defined as: • (a) One (1) episode of vomiting, or • (b) Two (2) episodes of retching, or • (c) One (1) episode of severe nausea (Grade 3; defined as nausea interfering with activities of daily living or inadequate oral caloric or fluid intake; tube feeding, total parenteral nutrition or hospitalization indicated) lasting more than 1 hour, or • (d) Three (3) consecutive episodes at every 4-hour ratings of moderate nausea (Grade 2; defined as subjectively symptomatic, but not interfering with activities of daily living), or • (e) One (1) episode of moderate diarrhea (Grade 2; defined as 4-6 stools more than at baseline).
When a subject reached FID-1 on pyridostigmine alone, the subject was washed out for 2 to 7 days, and then received single daily doses of pyridostigmine starting at 30 mg and titrated upward by 30 mg increments, together with oral ondansetron hydrochloride dihydrate (10 mg, equivalent to 8 mg ondansetron base) until subjects again reached an intolerable dose (FID-2).
On each study day, subjects were followed up for up to 8 hours following drug administration for AEs, vital signs, ECGs. In addition, a laboratory panel was taken at screening and at the end of the study.

Consider `CN(C)C(=O)Oc1ccc[n+](C)c1` [Pyridostigmine, Pyridostigmine bromide], for which the “FID-1 Dose Limiting Adverse Event” value is on record as “Vomiting”. In addition, the “FID-1 (Pyridostigmine alone)” value (first intolerable dose, single oral daily doses from 30 mg, raised by 30 mg increments) was 60 mg (2×) and 90 mg. The “MTD-1 (Pyridostigmine alone)” value (maximum tolerated single oral dose) is 30 mg and 60 mg. Further, for the setting “listed as pyridostigmine”, the “FID-1 Dose Limiting Adverse Event” value is reported as “vomiting”.
